# Where a SMILES comes first, the peptide text is derived from it. [ ]: non-standard residue; d: D form. The star is where a group is joined. dPhe(4-NHCONH2) = NC(=O)Nc1ccc(C[C@@H](N)C(=O)O)cc1; Dihydroorotyl(S) = O=C1C[C@@H](C(=O)*)NC(=O)N1; dPhe(4-Cl) = N[C@H](Cc1ccc(Cl)cc1)C(=O)O; Phe(4-NH2) = Nc1ccc(C[C@H](N)C(=O)O)cc1; d2Nal = N[C@H](Cc1ccc2ccccc2c1)C(=O)O; Lys(iPr) = CC(C)NCCCC[C@H](N)C(=O)O; d3Pal = N[C@H](Cc1cccnc1)C(=O)O
# Legend:
# Format in all cases: in vivo, human
# serum testosterone = assay: Example 9: serum testosterone, castration and recovery, neoadjuvant/adjuvant ADT to EBRT, versus degarelix; conditions: for Percent recovery (95% CI) to baseline testosterone or >280 ng/dL: 12 weeks from last dose
# Description: (§1) Eligible male patients were aged ≥18 years with a histologically confirmed diagnosis of localized, intermediate-risk prostate cancer, for whom 6-month neoadjuvant and adjuvant androgen deprivation therapy (ADT) to external beam radiation therapy (EBRT) was indicated. The criteria for establishing intermediate-risk prostate cancer included the presence of one of the following, without any high-risk feature: T2b-T2c disease, Gleason score 7, or prostate-specific antigen (PSA) 10-20 ng/mL. […] Based on investigator discretion and clinical assessment of the patient's overall medical and disease status, participation was allowed for older patients with high-risk disease (e.g., based on Gleason score or tumor status) who were deemed likely to benefit from 6 months of neoadjuvant/adjuvant ADT.
# Both treatment arms received treatment for 24 weeks. […] EBRT began no later than day 1, week 17. […]
# (§2) Samples for testosterone, luteinizing hormone (LH), FSH, and PSA concentrations were taken at screening, on day 1 of the first week (additionally days 2 and 4 for testosterone and LH), and on day 1 of weeks 2, 3, 5, 9, 13, 17, 21, 25, 29, 33, and 37 thereafter.
# LH = assay: Example 9: LH
# Description: as §1
# Both treatment arms received treatment for 24 weeks. […] EBRT began no later than day 1, week 17.
# (§3) Patients were evaluated every 4 weeks during the treatment period (including day 1, week 25), at end of treatment (defined as week 29), during follow-up (week 33), and at end of study (EOS).
# as §2
# FSH = assay: Example 9: FSH
# Description: (§4) Eligible male patients were aged ≥18 years with a histologically confirmed diagnosis of localized, intermediate-risk prostate cancer, for whom 6-month neoadjuvant and adjuvant androgen deprivation therapy (ADT) to external beam radiation therapy (EBRT) was indicated. The criteria for establishing intermediate-risk prostate cancer included the presence of one of the following, without any high-risk feature: T2b-T2c disease, Gleason score 7, or prostate-specific antigen (PSA) 10-20 ng/mL. Additional inclusion criteria included: EBRT scheduled to begin ≥12 weeks after baseline visit; screening serum testosterone >150 ng/dL (5.2 nmol/L); screening PSA concentration >2 ng/ml; body mass index ≥18.0 at screening or baseline (i.e., the subject's BMI prior to treatment commencing); Eastern Cooperative Oncology Group performance status of 0 or 1 at screening. Based on investigator discretion and clinical assessment of the patient's overall medical and disease status, participation was allowed for older patients with high-risk disease (e.g., based on Gleason score or tumor status) who were deemed likely to benefit from 6 months of neoadjuvant/adjuvant ADT. Most patients had intermediate-risk disease. However, a few patients, based on Gleason score or tumor, node, and metastasis staging system, were technically of higher than intermediate risk.
# (§5) Both treatment arms received treatment for 24 weeks. Patients remained on treatment for at least 12 weeks before the start of external beam radiation treatment (EBRT), which was initiated for most patients between Week 13, Day 1 and Week 15, Day 1. EBRT began no later than day 1, week 17.
# as §3
# as §2, with “thereafter. […] Suppression of FSH was less profound than that of LH, but consistent with the literature, and was greater than that observed with GnRH agonists.” for “thereafter.”
# PSA = assay: Example 9: PSA
# Description: as §4, §5, §3
# as §2, with “thereafter. […] Suppression of FSH was less profound than that of LH, but consistent with the literature, and was greater than that observed with GnRH agonists.” for “thereafter.”
# [1] = test system: patients with intermediate-risk prostate cancer; assay: Example 9: quality of life (EORTC QLQ-C30, QLQ-PR25, AMS)
# Description: as §4, §5
# Quality of Life (QoL) was assessed via the core 30-item European Organisation for Research and Treatment of Cancer quality of life questionnaire (EORTC QLQ-C30), the 25-item prostate cancer module EORTC questionnaire (EORTC QLQ-PR25), and the aging male survey (AMS). QoL assessments were completed at screening, on day 1 of weeks 1, 5, 13, and 25, and at weeks 29, 33, and 37.
# [2] = subjects with at least 24 weeks of treatment
# [3] = from baseline (day 1) to week 25
compound,measurement,setting,value
"CC(=O)N[C@H](Cc1ccc2ccccc2c1)C(=O)N[C@H](Cc1ccc(Cl)cc1)C(=O)N[C@H](Cc1cccnc1)C(=O)N[C@@H](CO)C(=O)N[C@@H](Cc1ccc(NC(=O)[C@@H]2CC(=O)NC(=O)N2)cc1)C(=O)N[C@H](Cc1ccc(NC(N)=O)cc1)C(=O)N[C@@H](CC(C)C)C(=O)N[C@@H](CCCCNC(C)C)C(=O)N1CCC[C@H]1C(=O)N[C@H](C)C(N)=O [Degarelix, degarelix, reference compound] (Ac-[d2Nal][dPhe(4-Cl)][d3Pal]S[Phe(4-NH2)](Dihydroorotyl(S))[dPhe(4-NHCONH2)]L[Lys(iPr)]P[dA]-NH2)","Kaplan-Meier estimate (95% CI) of testosterone recovery, probability of event",serum testosterone; 4 weeks from last dose,0.00 (0.00.0.00)
same,"Kaplan-Meier estimate (95% CI) of testosterone recovery, probability of event",serum testosterone; 8 weeks from last dose,0.00 (0.00.0.00)
same,patients whose serum testosterone met the definition of recovery,serum testosterone; 12-week follow-up,6 of 38
same,Percent recovery (95% CI) to baseline testosterone or >280 ng/dL,serum testosterone,5.3 (0.6.17.7) %
same,Percent recovery (95% CI) to baseline testosterone or >280 ng/dL,serum testosterone; listed as degarelix,5.3%
same,Median testosterone,serum testosterone; Baseline,403.8 ng/dL
same,Testosterone Median,serum testosterone; Baseline,14.020 nmol/L
same,Testosterone Mean (Std Dev),"serum testosterone; Baseline, Compound 1 120 mg QD or degarelix 80 mg Q4W",14.567 (5.5680) nmol/L
same,Testosterone Mean (Std Dev),serum testosterone; EOS,3.038 (4.0224) nmol/L
same,Testosterone Median,serum testosterone; EOS,1.040 nmol/L
same,Testosterone Mean (Std Dev),serum testosterone; EOT,0.576 (1.2218) nmol/L
same,Testosterone Median,serum testosterone; EOT,0.335 nmol/L
same,Testosterone Mean (Std Dev),serum testosterone; Follow-Up,1.206 (1.9330) nmol/L
same,Testosterone Median,serum testosterone; Follow-Up,0.560 nmol/L
same,Median testosterone,serum testosterone; Week 24,8.9 ng/dL
same,Testosterone Mean (Std Dev),"serum testosterone; Week 25, Day 1",0.582 (1.5107) nmol/L
same,Testosterone Median,"serum testosterone; Week 25, Day 1",0.310 nmol/L
same,Median testosterone,serum testosterone; Week 28/EOT visit,9.6 ng/dL
same,Median testosterone,serum testosterone; Week 32/follow-up,16.1 ng/dL
same,Median testosterone,serum testosterone; Week 36/EOS,30.0 ng/dL
same,patients recovered to baseline testosterone or greater than 280 ng/dL,serum testosterone; end of 12-week follow-up,6%
same,median serum testosterone,serum testosterone; end of study visit,< 50 ng/dL
same,Median time to medical castration (≤50 ng/dL),serum testosterone; in vivo,3 days
same,Median time to profound castration (≤20 ng/dL),serum testosterone; in vivo,12 days
same,medical castration rate (less than 50 ng/dL),"serum testosterone; over 24 weeks, overall",89%
same,profound castration rate (less than 20 ng/dL),"serum testosterone; over 24 weeks, overall",68%
same,Testosterone recovery (baseline or >280 ng/dL): number with events,serum testosterone; overall safety population,6 (16) n (%)
same,Testosterone recovery: number censored,serum testosterone; overall safety population,32 (84) n (%)
same,"Time to testosterone recovery, 25th percentile (95% CI)",serum testosterone; overall safety population,100 (87.106) days
same,"Time to testosterone recovery, 75th percentile (95% CI)",serum testosterone; overall safety population,106 (100.106) days
same,"Time to testosterone recovery, Median (95% CI)",serum testosterone; overall safety population,100 (100.106) days
same,"Time to testosterone recovery, Median (95% CI)","serum testosterone; overall safety population, listed as degarelix","100 (100, 106) days"
same,medical castration rate (less than 50 ng/dL),serum testosterone; [2],86%
same,profound castration rate (less than 20 ng/dL),serum testosterone; [2],71%
same,Median LH,LH; Baseline,4.8 mlU/mL
same,LH level,LH; Day 4,0.499 mIU/mL
same,Median LH,LH; Week 24,0.1 mlU/mL
same,mean LH level,"LH; Week 25, Day 1",0.342 IU/L
same,Median LH,LH; Week 28/EOT visit,0.2 mlU/mL
same,Median LH,LH; Week 32/follow-up,0.5 mlU/mL
same,Median LH,LH; Week 36/EOS,1.4 mlU/mL
same,FSH level before administration,FSH; Baseline,11.716 IU/L
same,FSH level,"FSH; Week 2, Day 1",2.519 IU/L
same,mean FSH level,"FSH; Week 25, Day 1",1.471 IU/L
same,Median PSA,PSA; Baseline,7.3 µg/L
same,Median PSA,PSA; Week 24,0.1 µg/L
same,Median PSA,PSA; Week 28/EOT visit,0.07 µg/L
same,Median PSA,PSA; Week 32/follow-up,0.07 µg/L
same,Median PSA,PSA; Week 36/EOS,0.07 µg/L
same,patients achieving PSA values less than 0.2 ng/ml,PSA; by the end of 12 weeks,1 of 20
same,"Global health/QoL, Mean (SD) change",[1]; [3],−7.5 (13.7)
same,"Hormonal treatment-related symptoms, Mean (SD) change",[1]; [3],12.9 (10.4)
same,"Sexual activity, Mean (SD) change",[1]; [3],−11.8 (36.3)
same,"Global health/QoL, Mean (SD) change",[1]; from baseline to week 36 (EOS),−6.8 (16.0)
same,"Hormonal treatment-related symptoms, Mean (SD) change",[1]; from baseline to week 36 (EOS),11.7 (10.2)
same,"Sexual activity, Mean (SD) change",[1]; from baseline to week 36 (EOS),−5.3 (34.7)
same,"Global health/QoL, Mean (SD) change",[1]; from week 25 to week 36,0.7 (15.5)
same,"Hormonal treatment-related symptoms, Mean (SD) change",[1]; from week 25 to week 36,−1.2 (9.1)
same,"Sexual activity, Mean (SD) change",[1]; from week 25 to week 36,6.6 (22.8)
